Assay results as given in patent publication US9108983B2, “Pyrrole compounds, a process for their preparation and pharmaceutical compositions containing them” (LES LABORATOIRES SERVIER, priority 2013, dated 2015).
Structures can show the parent of a compound that is named as a salt. Where two headings read alike, the source gives them in different places.

Experiments:
[1] = tested on: RS4;11 leukaemia tumour line; assay: In vitro cytotoxicity (Microculture Tetrazolium Assay); type: cell-based; conditions: RS4;11 cells, exposed for 48 hours, cell viability, read-out: IC50 (nM) MTT RS4;11
Method: The cytotoxicity studies were carried out on the RS4;11 leukaemia tumour line.
The cells are distributed onto microplates and exposed to the test compounds for 48 hours.
The cell viability is then quantified by a colorimetric assay, the Microculture Tetrazolium Assay (Cancer Res., 1987, 47, 939-942).

Bcl-2 protein = Bcl-2 protein (histag-Bcl-2, UniProtKB P10415) (Homo sapiens (Human), UniProt P10415); assay: Inhibition of Bcl-2 by the fluorescence polarisation technique; type: binding; conditions: incubation for 2 hours, read-out: IC50 (nM) Bcl-2 FP
Bcl-2 protein, sequence (P10415 whole entry): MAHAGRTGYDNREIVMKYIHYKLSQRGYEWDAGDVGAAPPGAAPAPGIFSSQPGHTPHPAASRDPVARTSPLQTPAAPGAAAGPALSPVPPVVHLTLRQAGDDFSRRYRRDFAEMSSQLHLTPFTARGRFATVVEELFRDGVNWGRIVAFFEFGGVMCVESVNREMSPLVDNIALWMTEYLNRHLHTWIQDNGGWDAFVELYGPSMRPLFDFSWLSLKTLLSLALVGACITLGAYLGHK
How it was run: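 Fluorescence polarisation competition: His-tagged Bcl-2 (2.50×10^−8 M final) with fluorescein-labelled peptide (1.00×10^−8 M final) in 10 mM Hepes, 150 mM NaCl, 0.05% Tween20, pH 7.4. Increasing compound concentrations were added. Polarisation was read after 2 h incubation.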

Row | IC50 (Bcl-2 protein) [nM] | SMILES | IC50 ([1]; Homo sapiens, RS4-11, 48 h) [nM] | IC50 ([1]; Homo sapiens) [nM] | IC50 [1] [nM]
1 | 8.6 | Cc1c(C(=O)N(c2ccc(O)cc2)c2cnn(C)c2)cc(-c2cc3c(cc2C(=O)N2Cc4ccccc4C[C@H]2CN2CCOCC2)OCO3)n1CCF [Example 94, 1-(2-Fluoroethyl)-N-(4-hydroxyphenyl)-2-methyl-N-(1-methyl-1H-pyrazol-4-yl)-5-(6-{[(3S)-3-(morpholin-4-ylmethyl)-3,4-dihydroisoquinolin-2(1H)-yl]carbonyl}-1,3-benzodioxol-5-yl)-1H-pyrrole-3-carboxamide hydrochloride] | 104 | – | –
2 | 21.9 | Cc1c(C(=O)N(c2ccccc2)c2cnc3c(ccn3C)c2)cc(-c2cc3c(cc2C(=O)N2Cc4ccccc4C[C@H]2CN2CCOCC2)OCO3)n1C [Example 65, 1,2-Dimethyl-N-(1-methyl-1H-pyrrolo[2,3-b]pyridin-5-yl)-5-(6-{[(3S)-3-(morpholin-4-ylmethyl)-3,4-dihydroisoquinolin-2(1H)-yl]carbonyl}-1,3-benzodioxol-5-yl)-N-phenyl-1H-pyrrole-3-carboxamide hydrochloride] | 113 | – | –
3 | 2.7 | Cc1c(C(=O)N(c2ccc(O)cc2)c2cnc(OCCN3CCOCC3)nc2)cc(-c2cc(Cl)ccc2C(=O)N2Cc3ccccc3C[C@H]2C)n1C [Example 456, 5-(5-Chloro-2-{[(3R)-3-methyl-3,4-dihydroisoquinolin-2(1H)-yl]-carbonyl}phenyl)-N-(4-hydroxyphenyl)-1,2-dimethyl-N-{2-[2-(morpholin-4-yl)-ethoxy]pyrimidin-5-yl}-1H-pyrrole-3-carboxamide hydrochloride] | 80.6 | – | –
4 | 3.1 | Cc1c(N(C(=O)c2cc(-c3cc(Cl)ccc3C(=O)N3Cc4ccccc4C[C@H]3CCCN3CCOCC3)n(C)c2C)c2ccccc2)cc(C#N)n1C [Example 461, 5-(5-Chloro-2-{[(3R)-3-[3-(morpholin-4-yl)propyl]-3,4-dihydroisoquinolin-2(1H)-yl]carbonyl}phenyl)-N-(5-cyano-1,2-dimethyl-1H-pyrrol-3-yl)-1,2-dimethyl-N-phenyl-1H-pyrrole-3-carboxamide hydrochloride] | 18.6 | – | –
5 | 5.5 | Cc1c(C(=O)N(c2ccc(O)cc2)c2ccc3c(cnn3C)c2)cc(-c2cc(F)ccc2C(=O)N2Cc3ccccc3C[C@H]2CN2CCOCC2)n1C [Example 12, 5-(5-Fluoro-2-{[(3S)-3-(morpholin-4-ylmethyl)-3,4-dihydroisoquinolin-2(1H)-yl]carbonyl}phenyl)-N-(4-hydroxyphenyl)-1,2-dimethyl-N-(1-methyl-1H-indazol-5-yl)-1H-pyrrole-3-carboxamide hydrochloride] | 39.6 | – | –
6 | 26.1 | Cc1c(C(=O)N(c2ccc(O)cc2)c2cnn(C3CCOC3)c2)cc(-c2cc(F)ccc2C(=O)N2Cc3ccccc3C[C@H]2CN2CCOCC2)n1C (single isomer, unassigned) [Example 402, 5-(5-Fluoro-2-{[(3S)-3-(morpholin-4-ylmethyl)-3,4-dihydroisoquinolin-2(1H)-yl]carbonyl}phenyl)-N-(4-hydroxyphenyl)-1,2-dimethyl-N-{1-[(3S or R)-tetrahydrofuran-3-yl]-1H-pyrazol-4-yl}-1H-pyrrole-3-carboxamide hydrochloride] | 241 | – | –
7 | 9.9 | Cc1c(C(=O)N(c2ccc(O)cc2)c2cnc3c(c2)CCN3C)cc(-c2ccccc2C(=O)N2Cc3ccccc3C[C@H]2CN2CCOCC2)n1C [Example 410, N-(4-Hydroxyphenyl)-1,2-dimethyl-N-(1-methyl-2,3-dihydro-1H-pyrrolo[2,3-b]pyridin-5-yl)-5-(2-{[(3S)-3-(morpholin-4-ylmethyl)-3,4-dihydroisoquinolin-2(1H)-yl]carbonyl}phenyl)-1H-pyrrole-3-carboxamide hydrochloride] | 61.6 | – | –
8 | 6.5 | Cc1c(N(C(=O)c2cc(-c3cc(Cl)ccc3C(=O)N3Cc4ccccc4CC3C(F)(F)F)n(C)c2C)c2ccc(O)cc2)cc(C#N)n1C (stereo not drawn) [Example 454, 5-(5-Chloro-2-{[3-(trifluoromethyl)-3,4-dihydroisoquinolin-2(1H)-yl]carbonyl}phenyl)-N-(5-cyano-1,2-dimethyl-1H-pyrrol-3-yl)-N-(4-hydroxyphenyl)-1,2-dimethyl-1H-pyrrole-3-carboxamide] | 158 | – | –
9 | 71.4 | CCNC(=O)NCc1ccc(-c2cc(C(=O)N(C)c3ccc(O)cc3)c(C)n2C)c(C(=O)N2Cc3ccccc3C[C@H]2C)c1 [Example 36, 5-(4-{[(Ethylcarbamoyl)amino]methyl}-2-{[(3R)-3-methyl-3,4-dihydroisoquinolin-2(1H)-yl]carbonyl}phenyl)-N-(4-hydroxyphenyl)-N,1,2-trimethyl-1H-pyrrole-3-carboxamide] | > 600 | – | –
10 | 14.3 | COc1cc(C(=O)N2Cc3ccccc3C[C@H]2C)c(-c2cc(C(=O)N(c3ccc(O)cc3)c3cnn(C)c3)c(C)n2C)cc1F [Example 62, 5-(5-Fluoro-4-methoxy-2-{[(3R)-3-methyl-3,4-dihydroisoquinolin-2(1H)-yl]carbonyl}phenyl)-N-(4-hydroxyphenyl)-1,2-dimethyl-N-(1-methyl-1H-pyrazol-4-yl)-1H-pyrrole-3-carboxamide] | 127 | – | –
11 | 13.6 | COc1ncc(N(C(=O)c2cc(-c3ccccc3C(=O)N3Cc4ccccc4C[C@H]3CN3CCOCC3)n(C)c2C)c2ccc(O)cc2)cn1 [Example 424, N-(4-Hydroxyphenyl)-N-(2-methoxypyrimidin-5-yl)-1,2-dimethyl-5-(2-{[(3S)-3-(morpholin-4-ylmethyl)-3,4-dihydroisoquinolin-2(1H)-yl]carbonyl}phenyl)-1H-pyrrole-3-carboxamide hydrochloride] | 102 | – | –
12 | 7.4 | COc1cc(C(=O)N2Cc3ccccc3C[C@H]2CN2CCOCC2)c(-c2cc(C(=O)N(c3ccc(O)cc3)c3cnc4c(ccn4C)c3)c(C)n2C)cc1F [Example 209, 5-(5-Fluoro-4-methoxy-2-{[(3S)-3-(morpholin-4-ylmethyl)-3,4-dihydroisoquinolin-2(1H)-yl]carbonyl}phenyl)-N-(4-hydroxyphenyl)-1,2-dimethyl-N-(1-methyl-1H-pyrrolo[2,3-b]pyridin-5-yl)-1H-pyrrole-3-carboxamide hydrochloride] | 25.4 | – | –
13 | 3.5 | Cc1c(N(C(=O)c2cc(-c3cc(Cl)ccc3C(=O)N3Cc4ccccc4C[C@H]3CN3CCOCC3)n(C)c2C)c2ccccc2)cc(C#N)n1C [Example 441, 5-(5-Chloro-2-{[(3S)-3-(morpholin-4-ylmethyl)-3,4-dihydroisoquinolin-2(1H)-yl]carbonyl}phenyl)-N-(5-cyano-1,2-dimethyl-1H-pyrrol-3-yl)-1,2-dimethyl-N-phenyl-1H-pyrrole-3-carboxamide hydrochloride] | 132 | – | –
14 | 12.6 | Cc1c(C(=O)N(c2ccc(O)cc2)c2cccc(F)c2)cc(-c2cc3c(cc2C(=O)N2Cc4ccccc4C[C@H]2CN2CCOCC2)OCO3)n1C [Example 16, N-(3-Fluorophenyl)-N-(4-hydroxyphenyl)-1,2-dimethyl-5-(6-{[(3S)-3-(morpholin-4-ylmethyl)-3,4-dihydroisoquinolin-2(1H)-yl]carbonyl}-1,3-benzodioxol-5-yl)-1H-pyrrole-3-carboxamide hydrochloride] | 22.7 | – | –
15 | 19.9 | Cc1c(C(=O)N(c2ccc(O)cc2)c2cnc3c(ccn3C)c2)cc(-c2cc(Cl)ccc2C(=O)N2Cc3ccccc3CC2C(F)(F)F)n1C (stereo not drawn) [Example 430, 5-(5-Chloro-2-{[3-(trifluoromethyl)-3,4-dihydroisoquinolin-2(1H)-yl]-carbonyl}phenyl)-N-(4-hydroxyphenyl)-1,2-dimethyl-N-(1-methyl-1H-pyrrolo[2,3-b]-pyridin-5-yl)-1H-pyrrole-3-carboxamide] | 328 | – | –
16 | 80 | Cc1c(C(=O)N(C)c2ccc(O)cc2)cc(-c2cc(CCNC(=O)Cc3ccccc3)ccc2C(=O)N2Cc3ccccc3C[C@H]2C)n1C [Example 57, N-(4-Hydroxyphenyl)-N,1,2-trimethyl-5-(2-{[(3R)-3-methyl-3,4-dihydroisoquinolin-2(1H)-yl]carbonyl}-5-{2-[(phenylacetyl)amino]ethyl}phenyl)-1H-pyrrole-3-carboxamide] | > 600 | – | –

Row | SMILES | IC50 (Bcl-2 protein) [nM] | IC50 ([1]; Homo sapiens, RS4-11, 48 h) [nM] | IC50 ([1]; Homo sapiens) [nM] | IC50 [1] [nM]
17 | Cc1ccc(OC(=O)NCc2ccc(-c3cc(C(=O)N(C)c4ccc(O)cc4)c(C)n3C)c(C(=O)N3Cc4ccccc4C[C@H]3C)c2)cc1 [Example 66, 4-Methylphenyl (4-{4-[(4-hydroxyphenyl)(methyl)carbamoyl]-1,5-dimethyl-1H-pyrrol-2-yl}-3-{[(3R)-3-methyl-3,4-dihydroisoquinolin-2(1H)-yl]-carbonyl}benzyl)carbamate] | 16.9 | – | 241 | –
18 | Cn1cc(N(C(=O)c2cc(-c3cc4c(cc3C(=O)N3Cc5ccccc5C[C@H]3CN3CCOCC3)OCO4)n(C)c2C(F)(F)F)c2ccc(O)cc2)cn1 [Example 75, N-(4-Hydroxyphenyl)-1-methyl-N-(1-methyl-4H-pyrazol-4-yl)-5-(6-{[(3S)-3-(morpholin-4-ylmethyl)-3,4-dihydroisoquinolin-2(1TH-yl]carbonyl}-1,3-benzodioxol-5-yl)-2-(trifluoromethyl)-1H-pyrrole-3-carboxamide hydrochloride] | 52.9 | – | – | 367
